Active and inactive are the calls of the source. The rule behind the calls is not given here.
What was measured:
Colon 26 [1] = experiment: Antineoplastic activity against mouse Colon 26 cells allografted in CDF1 mouse assessed as survival at 20 mg/kg qd for 9 days; assay type: functional, organism-based; set-up: dose 20 mg/kg
L1210 [2] = experiment: Antineoplastic activity against mouse L1210 cells allografted in CDF1 mouse at 40 mg/kg qd for 9 days relative to control; assay type: functional
B16 [3] = experiment: Antineoplastic activity against mouse B16 cells allografted in BDF1 mouse assessed as survival at 50 mg/kg qd for 9 days; assay type: functional, organism-based; set-up: dose 50 mg/kg
P388 [4] = experiment: Antineoplastic activity against mouse P388 cells allografted in CDF1 mouse at 80 mg/kg qd for 9 days relative to control; assay type: functional
Colon 26 [5] = experiment: Antineoplastic activity against mouse Colon 26 cells allografted in CDF1 mouse at 40 mg/kg qd for 9 days relative to control; assay type: functional
B16 [6] = experiment: Antineoplastic activity against mouse B16 cells allografted in BDF1 mouse assessed as survival at 100 mg/kg qd for 9 days; assay type: functional, organism-based; set-up: dose 100 mg/kg
L1210 [7] = experiment: Antineoplastic activity against mouse L1210 cells allografted in CDF1 mouse at 160 mg/kg qd for 9 days relative to control; assay type: functional
Colon 26 [8] = experiment: Antineoplastic activity against mouse Colon 26 cells allografted in CDF1 mouse at 20 mg/kg qd for 9 days relative to control; assay type: functional
L1210 [9] = experiment: Antineoplastic activity against mouse L1210 cells allografted in CDF1 mouse at 80 mg/kg qd for 9 days relative to control; assay type: functional
Colon 26 [10] = experiment: Antineoplastic activity against mouse Colon 26 cells allografted in CDF1 mouse at 80 mg/kg qd for 9 days relative to control; assay type: functional
P388 [11] = experiment: Antineoplastic activity against mouse P388 cells allografted in CDF1 mouse assessed as survival at 80 mg/kg qd for 9 days; assay type: functional, organism-based; set-up: dose 80 mg/kg
P388 [12] = experiment: Antineoplastic activity against mouse P388 cells allografted in CDF1 mouse at 40 mg/kg qd for 9 days relative to control; assay type: functional
P388 [13] = experiment: Antineoplastic activity against mouse P388 cells allografted in CDF1 mouse assessed as survival at 40 mg/kg qd for 9 days; assay type: functional, organism-based; set-up: dose 40 mg/kg
L1210 [14] = experiment: Antineoplastic activity against mouse L1210 cells allografted in CDF1 mouse assessed as survival at 80 mg/kg qd for 9 days; assay type: functional, organism-based; set-up: dose 80 mg/kg
L1210 [15] = experiment: Antineoplastic activity against mouse L1210 cells allografted in CDF1 mouse assessed as survival at 40 mg/kg qd for 9 days; assay type: functional, organism-based; set-up: dose 40 mg/kg
L1210 [16] = experiment: Antineoplastic activity against mouse L1210 cells allografted in CDF1 mouse assessed as survival at 160 mg/kg qd for 9 days; assay type: functional, organism-based; set-up: dose 160 mg/kg
Colon 26 [17] = experiment: Antineoplastic activity against mouse Colon 26 cells allografted in CDF1 mouse assessed as survival at 40 mg/kg qd for 9 days; assay type: functional, organism-based; set-up: dose 40 mg/kg
B16 [18] = experiment: Antineoplastic activity against mouse B16 cells allografted in BDF1 mouse at 200 mg/kg qd for 9 days relative to control; assay type: functional
B16 [19] = experiment: Antineoplastic activity against mouse B16 cells allografted in BDF1 mouse at 100 mg/kg qd for 9 days relative to control; assay type: functional
B16 [20] = experiment: Antineoplastic activity against mouse B16 cells allografted in BDF1 mouse at 50 mg/kg qd for 9 days relative to control; assay type: functional
P388 [21] = experiment: Antineoplastic activity against mouse P388 cells allografted in CDF1 mouse at 30 mg/kg qd for 9 days relative to control; assay type: functional
Colon 26 [22] = experiment: Antineoplastic activity against mouse Colon 26 cells allografted in CDF1 mouse assessed as survival at 80 mg/kg qd for 9 days; assay type: functional, organism-based; set-up: dose 80 mg/kg
P388 [23] = experiment: Antineoplastic activity against mouse P388 cells allografted in CDF1 mouse assessed as survival at 30 mg/kg qd for 9 days; assay type: functional, organism-based; set-up: dose 30 mg/kg
B16 [24] = experiment: Antineoplastic activity against mouse B16 cells allografted in BDF1 mouse assessed as survival at 200 mg/kg qd for 9 days; assay type: functional, organism-based; set-up: dose 200 mg/kg
P388 [25] = experiment: Antineoplastic activity against mouse P388 cells allografted in CDF1 mouse at 50 mg/kg qd for 9 days relative to control; assay type: functional
B16 [26] = experiment: Antineoplastic activity against mouse B16 cells allografted in BDF1 mouse assessed as survival at 25 mg/kg qd for 9 days; assay type: functional, organism-based; set-up: dose 25 mg/kg
P388 [27] = experiment: Antineoplastic activity against mouse P388 cells allografted in CDF1 mouse at 100 mg/kg qd for 9 days relative to control; assay type: functional
P388 [28] = experiment: Antineoplastic activity against mouse P388 cells allografted in CDF1 mouse assessed as survival at 50 mg/kg qd for 9 days; assay type: functional, organism-based; set-up: dose 50 mg/kg
P388 [29] = experiment: Antineoplastic activity against mouse P388 cells allografted in CDF1 mouse assessed as survival at 100 mg/kg qd for 9 days; assay type: functional, organism-based; set-up: dose 100 mg/kg
B16 [30] = experiment: Antineoplastic activity against mouse B16 cells allografted in BDF1 mouse at 25 mg/kg qd for 9 days relative to control; assay type: functional
P388 [31] = experiment: Antineoplastic activity against mouse P388 cells allografted in CDF1 mouse at 25 mg/kg qd for 9 days relative to control; assay type: functional
P388 [32] = experiment: Antineoplastic activity against mouse P388 cells allografted in CDF1 mouse at 15 mg/kg qd for 9 days relative to control; assay type: functional
P388 [33] = experiment: Antineoplastic activity against mouse P388 cells allografted in CDF1 mouse assessed as survival at 25 mg/kg qd for 9 days; assay type: functional, organism-based; set-up: dose 25 mg/kg
P388 [34] = experiment: Antineoplastic activity against mouse P388 cells allografted in CDF1 mouse assessed as survival at 12.5 mg/kg qd for 9 days; assay type: functional, organism-based; set-up: dose 12.5 mg/kg
P388 [35] = experiment: Antineoplastic activity against mouse P388 cells allografted in CDF1 mouse at 12.5 mg/kg qd for 9 days relative to control; assay type: functional
P388 [36] = experiment: Antineoplastic activity against mouse P388 cells allografted in CDF1 mouse assessed as survival at 15 mg/kg qd for 9 days; assay type: functional, organism-based; set-up: dose 15 mg/kg
P388 [37] = experiment: Antineoplastic activity against mouse P388 cells allografted in CDF1 mouse assessed as survival at 6.25 mg/kg qd for 9 days; assay type: functional, organism-based; set-up: dose 6.25 mg/kg
P388 [38] = experiment: Antineoplastic activity against mouse P388 cells allografted in CDF1 mouse at 6.25 mg/kg qd for 9 days relative to control; assay type: functional

Structure (SMILES): CN(C)CCNc1ccc(O)c2c1C(=O)c1ccccc1C2=O
- Activity (Colon 26 [1]): Active
- T/C (L1210 [2]): 107%
- Activity (B16 [3]): Active
- T/C (P388 [4]): 153%
- T/C (Colon 26 [5]): 135%
- Activity (B16 [6]): Active
- T/C (L1210 [7]): 139%
- T/C (Colon 26 [8]): 104%
- T/C (L1210 [9]): 122%
- T/C (Colon 26 [10]): 115%
- Activity (P388 [11]): Active
- T/C (P388 [12]): 124%
- Activity (P388 [13]): Active
- Activity (L1210 [14]): Active
- Activity (L1210 [15]): Active
- Activity (L1210 [16]): Active
- Activity (Colon 26 [17]): Active
- T/C (B16 [18]): 156%
- T/C (B16 [19]): 145%
- T/C (B16 [20]): 110%
- T/C (P388 [21]): 100%
- Activity (Colon 26 [22]): Active
- Activity (P388 [23]): Active
- Activity (B16 [24]): Active

Structure (SMILES): CN(C)CCOc1cccc2c1C(=O)c1ccccc1C2=O
- T/C (P388 [25]): 107%
- Activity (B16 [26]): Active
- T/C (P388 [27]): 109%
- Activity (P388 [28]): Active
- Activity (B16 [6]): Active
- Activity (P388 [29]): Active
- T/C (B16 [19]): 104%
- T/C (B16 [20]): 97%
- T/C (B16 [30]): 93%

Structure (SMILES): Cc1ccc(NCCNCCO)c2c(=O)c3ccccc3sc12
- T/C (P388 [31]): 120%
- T/C (P388 [32]): 123%
- Activity (P388 [33]): Active
- Activity (P388 [34]): Active
- T/C (P388 [35]): 113%
- T/C (P388 [21]): 136%
- Activity (P388 [23]): Active
- Activity (P388 [36]): Active

Structure (SMILES): CN(C)CCC1=C(Cl)C(=O)c2ccccc2C1=O
- Activity (P388 [37]): Active
- Activity (P388 [34]): Active
- T/C (P388 [35]): 97%
- T/C (P388 [38]): 94%

Structure (SMILES): O=C1C=C(NCCNCCO)C(=O)c2ccccc21
- T/C (P388 [25]): 103%
- T/C (P388 [27]): 93%

Source: ChEMBL document CHEMBL3244053, “Structural modification study of bis(substituted aminoalkylamino)anthraquinones. An evaluation of the relationship of the [2-[(2-hydroxyethyl)amino]ethyl]amino side chain with antineoplastic activity” (1979)
